Laboratory results taken from patent US20110295187A1 (Erchonia Corporation, priority 2004, published 2011).

System: pads of fat near the waist ("love handles")
Conditions: patient; niacin 500 mg rising to 1500 mg/day orally by tablet over 14 days; 635 nm diode laser, max 10 mW, 30 min scanning sessions

## O=C(O)c1cccnc1 [niacin, nicotinic acid]
  Fat reduction: love handles after treatment: reduced
